# Earlier results as cited in patent US20070042008A1, “Compositions containing phosphatidylcholine and essential fatty acids” (BodyBio, Inc., priority 2005, published 2007).
# Details: oral
substance,measurement,setting,value
Phosphatidylcholine [PC],blood levels peak (time to peak),,8 to 12 h
same,"absorbed, taken orally","per 24 hrs, taken with meals",up to 90%
